Measurements published in ChEMBL document CHEMBL4825696, “Development of photocontrolled BRD4 PROTACs for tongue squamous cell carcinoma (TSCC)” (Eur J Med Chem, 2021).
pIC50: −log10 of the molar value. Values belong to the molecule of their own block, whether it stands above or below them. The source made the active and inactive calls. No cut-off for these calls is given here.

Experiments:
[1] = Photolysis of compound in acetonitrile assessed as 2-(2,6-dioxo-3-piperidyl)isoindoline-1,3-dione formation at 40 uM incubated for 40 mins under 365 nm UVA irradiation by HPLC analysis; type: functional
[2] = Photolysis of compound in acetonitrile assessed as 2-(2,6-dioxo-3-piperidyl)isoindoline-1,3-dione formation at 40 uM incubated for 40 mins under 365 nm UVA irradiation by UV-Vis spectral analysis; type: functional
HN-6 [3] = assay: Antitumor activity against human HN-6 cells xenografted in nude mouse assessed as tumor growth inhibition at 50 mg/kg, ip administered every day for 2 weeks and measured every 2 days; type: functional, organism-based
[4] = Induction of apoptosis in human HN-6 cells assessed as viable cells at 5 uM measured after 1 hr by AnnexinV-FITC/propidium iodide staining based flow cytometry analysis (reference value: 93.62%); type: functional; conditions: read-out: Activity
[5] = molecular target: T1, Protein cereblon/Bromodomain-containing protein 4 (Homo sapiens) (UniProt O60885+Q96SW2); assay: PROTAC activity at CRBN/BRD4 in human HEK293T cells assessed as BRD4 degradation by measuring downregulation of c-Myc level by western blot analysis; type: cell-based
[6] = Induction of apoptosis in human HN-6 cells assessed as necrotic cells at 5 uM measured after 1 hr by AnnexinV-FITC/propidium iodide staining based flow cytometry analysis (reference value: 3.37%); type: functional
[7] = molecular target: T1, Protein cereblon/Bromodomain-containing protein 4 (Homo sapiens); assay: PROTAC activity at CRBN/BRD4 in human HEK293T cells assessed as BRD4 degradation by measuring downregulation of BRD4 level at 0.1 to 10 uM by western blot analysis; type: cell-based; conditions: dose 0.1-10 µM
HN-6 [8] = assay: Antitumour activity against human HN-6 cells xenografted in zebrafish embryo assessed as inhibition of tumour growth at 50 uM measured after 72 hrs by microscopic method; type: functional
[9] = Induction of apoptosis in human HN-6 cells assessed as early apoptotic cells at 5 uM measured after 1 hr by AnnexinV-FITC/propidium iodide staining based flow cytometry analysis (Rvb =1.54%); type: functional
[10] = (§1) Antiproliferative activity against human HN-6 cells assessed as reduction in cell viability incubated for 24 hrs by CCK-8 assay; type: functional, cell-based; conditions: HN-6, 24 h
[11] = Induction of apoptosis in human HN-6 cells assessed as late apoptotic cells at 5 uM measured after 1 hr by AnnexinV-FITC/propidium iodide staining based flow cytometry analysis (reference value: 1.46%); type: functional
[12] = molecular target: T1, Protein cereblon/Bromodomain-containing protein 4 (Homo sapiens); assay: PROTAC activity at CBRN/BRD4 in human HEK293T cells assessed as degradation of BRD4 measured after 30 mins by Fluorescence polarization competitive binding assay; type: cell-based
[13] = Induction of apoptosis in human HN-6 cells assessed as early apoptotic cells at 5 uM irradiated with 365 nm UVA light for 15 mins followed by incubation with compound for 24 hrs by AnnexinV-FITC/propidium iodide staining based flow cytometry analysis (reference value: 5.3%); type: functional
[14] = molecular target: T1, Protein cereblon/Bromodomain-containing protein 4 (Homo sapiens); assay: PhotoPROTAC activity at CRBN/BRD4 in human HEK293T cells assessed as BRD4 degradation by measuring downregulation of BRD4 level at 3 uM pretreated for 1 hr followed by irradiation with 365 nm UVA light for 15 mins and measured after 24 hrs by Western blot analysis; type: cell-based; conditions: time 1515.0 min
[15] = molecular target: T1, Protein cereblon/Bromodomain-containing protein 4 (Homo sapiens); assay: PhotoPROTAC activity at CRBN/BRD4 in human HEK293T cells assessed as BRD4 degradation by measuring downregulation of c-Myc level pretreated for 1 hr followed by irradiation with 365 nm UVA light for 15 mins and measured after 24 hrs by Western blot analysis; type: cell-based; conditions: time 1515.0 min
HN-6 [16] = assay: Antitumour activity against human HN-6 cells xenografted in zebrafish embryo assessed as inhibition of tumour growth at 50 uM irradiated with 365 nm UVA light for 20 mins and measured after 3 days by microscopic method; type: functional; conditions: time 3.0 day
HN-6 [17] = assay: as §1; type: functional, cell-based
[18] = (§2) Photolysis of compound in acetonitrile assessed as 2-((S)-4-(4-chlorophenyl)-2,3,9-trimethyl-6H-thieno[3,2-f][1,2,4]triazolo[4,3a][1,4]diazepin-6-yl)-N-(4-(2-((2-(2,6-dioxopiperidin-3-yl)-1,3-dioxoisoindolin-4-yl)oxy)acetamido)butyl)acetamide formation at 40 uM incubated for 60 mins under 365 nm UVA irradiation by HPLC analysis; type: functional
[19] = molecular target: T1, Protein cereblon/Bromodomain-containing protein 4 (Homo sapiens); assay: PhotoPROTAC activity at CBRN/BRD4 in human HEK293T cells assessed as degradation of BRD4 irradiated with 365 nm UVA light for 15 mins followed by incubation with compound for 30 mins by Fluorescence polarization competitive binding assay; type: cell-based
[20] = Induction of apoptosis in human HN-6 cells assessed as viable cells at 5 uM irradiated with 365 nm UVA light for 15 mins followed by incubation with compound for 24 hrs by AnnexinV-FITC/propidium iodide staining based flow cytometry analysis (reference value: 90.31%); type: functional; conditions: HN-6, light or radiation study, read-out: Activity
[21] = Induction of apoptosis in human HN-6 cells assessed as late apoptotic cells at 5 uM irradiated with 365 nm UVA light for 15 mins followed by incubation with compound for 24 hrs by AnnexinV-FITC/propidium iodide staining based flow cytometry analysis (Rvb =1.69%); type: functional
[22] = Photolysis of compound in acetonitrile assessed as 2-((S)-4-(4-chlorophenyl)-2,3,9-trimethyl-6H-thieno[3,2-f][1,2,4]triazolo[4,3a][1,4]diazepin-6-yl)-N-(4-(2-((2-(2,6-dioxopiperidin-3-yl)-1,3-dioxoisoindolin-4-yl)oxy)acetamido)butyl)acetamide formation at 40 uM incubated for 60 mins under 365 nm UVA irradiation by UV-Vis spectral analysis; type: functional
[23] = as §2, with “DMSO-d6” for “acetonitrile”, “10 mM” for “40 uM”, “1H-NMR” for “HPLC”; type: functional
HN-6 [24] = assay: Antiproliferative activity against human HN-6 cells assessed as reduction in cell viability irradiated with 365 nm UVA light for 15 mins followed by incubation with compound for 24 hrs by CCK-8 assay; type: functional, cell-based
[25] = Induction of apoptosis in human HN-6 cells assessed as necrotic cells at 5 uM irradiated with 365 nm UVA light for 15 mins followed by incubation with compound for 24 hrs by AnnexinV-FITC/propidium iodide staining based flow cytometry analysis (reference value: 2.7%); type: functional

Structure (SMILES): COc1cc(CN2C(=O)CCC(N3C(=O)c4ccccc4C3=O)C2=O)c([N+](=O)[O-])cc1OC (stereo not given)
Drug metabolism [1]: Metabolite detected
Drug metabolism [2]: Metabolite detected

Activity [5]: Active
Activity [7]: Active
Activity [12]: Dose-Dependent Effect
Structure (SMILES): Cc1sc2c(c1C)C(c1ccc(Cl)cc1)=N[C@@H](CC(=O)NCCCCNC(=O)COc1cccc3c1C(=O)N(C1CCC(=O)NC1=O)C3=O)c1nnc(C)n1-2 (stereo not given in full)
Activity (HN-6 [3]): Active
viability at 5 µM [4]: 51.1%
Activity [6]: 3%
Activity (HN-6 [8]): Active
Activity [9]: 33.75%
pIC50 [10]: 5.15
Activity [11]: 12.17%

Activity [14]: Active
Activity [15]: Active
Activity [19]: Dose-Dependent Effect
Structure (SMILES): COc1cc(CN2C(=O)CCC(N3C(=O)c4cccc(OCC(=O)NCCCCNC(=O)C[C@@H]5N=C(c6ccc(Cl)cc6)c6c(sc(C)c6C)-n6c(C)nnc65)c4C3=O)C2=O)c([N+](=O)[O-])cc1OC (stereo not given in full)
Activity [13]: 19.29%
viability at 5 µM [4]: 82.5%
Activity [6]: 2.55%
Activity (HN-6 [16]): Active
Activity (HN-6 [8]): inactive
Activity [9]: 10.85%
Activity (HN-6 [17]): inactive
Drug metabolism [18]: Metabolite detected
viability at 5 µM [20]: 68.1%
Activity [21]: 8.35%
Activity [11]: 4.05%
Drug metabolism [22]: Metabolite detected
Drug metabolism [23]: Metabolite detected
Activity (HN-6 [24]): Active
Activity [25]: 4.24%
